Measured values from US20240116985A1, “STAPLED PEPTIDES AND METHODS THEREOF” (priority 2020, published 2024).
In brackets after ≈: the same amount, converted by molar mass. Where two headings read alike, the source gives them in different places.

Key:
[1] = molecular target: T1, full-length beta-Catenin (Uniprot ID P35222) (Homo sapiens, UniProt P35222); assay: Fluorescence polarization IC50 (beta-catenin / 5FAM-TCF4 10-53 competition); assay type: binding
T1 construct: 10 nM full-length beta-Catenin (Uniprot ID P35222)
T1 sequence (P35222 1-781): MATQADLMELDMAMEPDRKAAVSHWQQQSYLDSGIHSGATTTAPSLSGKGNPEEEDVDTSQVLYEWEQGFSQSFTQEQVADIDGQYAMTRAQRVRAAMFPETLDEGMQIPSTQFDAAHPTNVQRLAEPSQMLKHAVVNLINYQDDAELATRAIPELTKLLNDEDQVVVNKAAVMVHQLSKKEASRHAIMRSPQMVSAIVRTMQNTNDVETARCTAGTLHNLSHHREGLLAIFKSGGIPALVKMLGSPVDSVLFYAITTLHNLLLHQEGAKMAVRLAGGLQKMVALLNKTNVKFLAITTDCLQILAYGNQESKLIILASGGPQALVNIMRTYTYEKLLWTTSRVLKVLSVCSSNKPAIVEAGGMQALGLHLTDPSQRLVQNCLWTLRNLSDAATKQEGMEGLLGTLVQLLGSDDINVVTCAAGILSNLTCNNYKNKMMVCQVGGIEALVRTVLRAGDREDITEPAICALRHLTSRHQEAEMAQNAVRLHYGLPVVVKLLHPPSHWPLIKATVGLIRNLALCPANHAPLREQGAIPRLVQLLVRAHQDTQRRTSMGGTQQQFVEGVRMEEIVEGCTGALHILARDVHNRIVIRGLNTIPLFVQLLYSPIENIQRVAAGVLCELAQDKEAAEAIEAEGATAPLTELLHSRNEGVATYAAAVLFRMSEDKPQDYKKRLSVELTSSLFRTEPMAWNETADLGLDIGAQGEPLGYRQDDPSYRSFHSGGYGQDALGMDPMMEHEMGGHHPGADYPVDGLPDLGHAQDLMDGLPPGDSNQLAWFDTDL

CHI Log D procedure = assay type: physicochemical; conditions: pH 7.4
Solubility in PBS = assay type: physicochemical
Method in brief: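 Steps: ultracentrifuge the peptide PBS solution, inject the supernatant on HPLC, inject a 50 μM peptide DMSO solution as reference, then calculate solubility as area ratio (PBS/DMSO) × 50 uM.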

[2] = molecular target: T2, beta-catenin/TCF4 engagement (Homo sapiens, UniProt P35222); assay: Nano-BRET target engagement assay (B-cat-Halo & TCF4-Luc in HEK293 cells); assay type: cell-based; conditions: absolute IC50; read-out: NanoBRET Abs IC50
T2 construct: expressed in transfected cells; host or cells: HEK293
T2 sequence (P35222 1-781): T1 sequence (P35222 1-781)

[3] = fluorescence polarization, read-out: beta-Catenin FP IC50

Row | SMILES | IC50 [1, 3] [nM] | IC50 ([1]; read-out: FP EC50) [nM] | CHI Log D (CHI Log D procedure) | Solubility (Solubility in PBS) [µM] | IC50 [2] [nM]
1 | CC(=O)N1CCC[C@]12CC=CCCCC1(CCCC=CCCCOC(=O)N3CC[C@@](C(=O)N[C@@H](Cc4ccccc4)C(=O)N[C@@H](Cc4csc5ccccc45)C(=O)N[C@@H](CCC(N)=O)C(N)=O)(C3)NC(=O)[C@H](CC(N)=O)NC(=O)[C@H](Cc3ccccc3)NC(=O)[C@H](C)NC(=O)[C@H](C)NC(=O)[C@H](CCC(=O)O)NC(=O)[C@H](CC(=O)O)NC1=O)NC(=O)[C@H](CC(C)(C)C)NC(=O)[C@H](CC(=O)O)NC2=O (stereo partly drawn) [I-685, Ac-PL3-Asp-Npg-B5-Asp-Glu-Ala-Ala-Phe-Asn-PyrS2-Phe-BztA-Gln-NH2] | 25 | 25 | 2.1 | 44 (≈ 84.8 µg/mL) | 19400
2 | CC(=O)N1CCC[C@]12CC=CCCCC1(CCCC=CCCCOC(=O)N3CC[C@@](C(=O)N[C@@H](Cc4ccsc4)C(=O)N[C@@H](Cc4csc5ccccc45)C(=O)N[C@@H](CCC(N)=O)C(N)=O)(C3)NC(=O)[C@H](CC(N)=O)NC(=O)[C@H](Cc3ccccc3)NC(=O)[C@H](C)NC(=O)[C@H](C)NC(=O)[C@H](CC(=O)O)NC(=O)[C@H](CC(=O)O)NC1=O)NC(=O)[C@H](CC(C)C)NC(=O)[C@H](CC(=O)O)NC2=O (stereo partly drawn) [I-688, Ac-PL3-Asp-Leu-B5-Asp-Asp-Ala-Ala-Phe-Asn-PyrS2-3Thi-BztA-Gln-NH2] | 6 | 6 | 1.924 | 46 (≈ 87.6 µg/mL) | 30100
3 | CC(=O)N1CCC[C@]12CC=CCCCC1(CCCC=CCCCOC(=O)N3CC[C@@](C(=O)N[C@@H](Cc4ccsc4)C(=O)N[C@@H](Cc4csc5ccccc45)C(=O)N[C@@H](CCC(N)=O)C(N)=O)(C3)NC(=O)[C@H](CC(N)=O)NC(=O)[C@H](Cc3ccccc3)NC(=O)[C@H](C)NC(=O)[C@H](C)NC(=O)[C@H](CC(=O)O)NC(=O)[C@H](CC(=O)O)NC1=O)NC(=O)[C@H](CC(C)C)NC(=O)[C@H](CC(=O)O)NC2=O (stereo partly drawn) [I-689, Ac-PL3-Asp-Leu-B5-Asp-Asp-Ala-Ala-Phe-Asn-PyrS2-3Thi-BztA-Gln-NH2] | 11 | 11 | 1.957 | 50 (≈ 95.2 µg/mL) | 33900
4 | CC(=O)N1CCC[C@]12CC=CCCCC1(CCCC=CCCCOC(=O)N3CC[C@@](C(=O)N[C@@H](Cc4ccsc4)C(=O)N[C@@H](Cc4csc5ccccc45)C(=O)N[C@@H](CCC(N)=O)C(N)=O)(C3)NC(=O)[C@H](CC(N)=O)NC(=O)[C@H](Cc3ccccc3)NC(=O)[C@H](C)NC(=O)[C@H](C)NC(=O)[C@H](CCC(=O)O)NC(=O)[C@H](CC(=O)O)NC1=O)NC(=O)[C@H](CC(C)(C)C)NC(=O)[C@H](CC(=O)O)NC2=O (stereo partly drawn) [I-690, Ac-PL3-Asp-Npg-B5-Asp-Glu-Ala-Ala-Phe-Asn-PyrS2-3Thi-BztA-Gln-NH2] | 7 | 7 | 2.013 | 44 (≈ 85 µg/mL) | 17800
5 | CC(=O)N1CCC[C@]12CC=CCCCC1(CCCC=CCCCOC(=O)N3CC[C@@](C(=O)N[C@@H](Cc4ccsc4)C(=O)N[C@@H](Cc4csc5ccccc45)C(=O)N[C@@H](CCC(N)=O)C(N)=O)(C3)NC(=O)[C@H](CC(N)=O)NC(=O)[C@H](Cc3ccccc3)NC(=O)[C@H](C)NC(=O)[C@H](C)NC(=O)[C@H](CCC(=O)O)NC(=O)[C@H](CC(=O)O)NC1=O)NC(=O)[C@H](CC(C)(C)C)NC(=O)[C@H](CC(=O)O)NC2=O (stereo partly drawn) [I-691, Ac-PL3-Asp-Npg-B5-Asp-Glu-Ala-Ala-Phe-Asn-PyrS2-3Thi-BztA-Gln-NH2] | 9 | 9 | 2.068 | 45 (≈ 86.9 µg/mL) | 17000
